This is an account of results in ChEMBL document CHEMBL1201862, “PubChem BioAssay data set” (2004).

Activity calls are given as the source filed them.

Among the targets are Cytochrome P450 2D6 (Homo sapiens, UniProt P10635); Cytochrome P450 3A4 (Homo sapiens, UniProt P08684); Cytochrome P450 2C9 (Homo sapiens, UniProt P11712).
For another data set, the target named is T1, Cytochrome P450 1A2 (Homo sapiens, UniProt P05177).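 Further: PubChem cytochrome P450 panel assay, CYP1A2 panel member.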
T1 sequence (P05177 whole entry): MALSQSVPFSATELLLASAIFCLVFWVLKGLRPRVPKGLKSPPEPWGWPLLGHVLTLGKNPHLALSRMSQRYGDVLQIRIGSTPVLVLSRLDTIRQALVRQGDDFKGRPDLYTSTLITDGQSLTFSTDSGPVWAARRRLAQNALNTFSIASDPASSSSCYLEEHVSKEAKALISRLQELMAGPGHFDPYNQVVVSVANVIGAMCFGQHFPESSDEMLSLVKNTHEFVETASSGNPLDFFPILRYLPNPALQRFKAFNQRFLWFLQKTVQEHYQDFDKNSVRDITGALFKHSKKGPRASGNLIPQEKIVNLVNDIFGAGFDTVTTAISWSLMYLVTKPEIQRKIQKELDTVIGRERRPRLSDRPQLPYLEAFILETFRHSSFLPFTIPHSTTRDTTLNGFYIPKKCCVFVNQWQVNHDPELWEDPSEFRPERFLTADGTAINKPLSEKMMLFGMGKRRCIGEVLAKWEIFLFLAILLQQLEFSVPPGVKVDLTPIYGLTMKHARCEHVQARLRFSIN

Another data set has as its target Cytochrome P450 2C19 (Homo sapiens, UniProt P33261). The data set can be described thus: Cytochrome panel assay with activity outcomes. Panel member name: p450-cyp2c19 Compounds with AC50 equal or less than 10 uM are considered active. In kind it is functional.
Data set [1] addresses Luciferin 4-monooxygenase (Photinus pyralis, UniProt P08659). The data set can be described thus: inhibition of purified Photinus pyralis luciferase – biochemical, luminescence, dose response (AID 1891).
Data set [2] can be described thus: Luminescence Cell-Based Dose Confirmation HTS to Identify Inhibitors of Platelet Dense Granule Release. [Related pubchem assays: 1663 (Primary HTS), 1678 (Summary of Project)]. In kind it is functional.
Data set [3] in a line: Luminescence Cell-Based Dose Retest to Confirm Inhibitors of Cancer Stem Cells. [Related pubchem assays (depositor defined):AID2717, AID2721]. In kind it is functional. The settings on record: Homo sapiens.

Sequence of Cytochrome P450 2D6 (P10635 whole entry): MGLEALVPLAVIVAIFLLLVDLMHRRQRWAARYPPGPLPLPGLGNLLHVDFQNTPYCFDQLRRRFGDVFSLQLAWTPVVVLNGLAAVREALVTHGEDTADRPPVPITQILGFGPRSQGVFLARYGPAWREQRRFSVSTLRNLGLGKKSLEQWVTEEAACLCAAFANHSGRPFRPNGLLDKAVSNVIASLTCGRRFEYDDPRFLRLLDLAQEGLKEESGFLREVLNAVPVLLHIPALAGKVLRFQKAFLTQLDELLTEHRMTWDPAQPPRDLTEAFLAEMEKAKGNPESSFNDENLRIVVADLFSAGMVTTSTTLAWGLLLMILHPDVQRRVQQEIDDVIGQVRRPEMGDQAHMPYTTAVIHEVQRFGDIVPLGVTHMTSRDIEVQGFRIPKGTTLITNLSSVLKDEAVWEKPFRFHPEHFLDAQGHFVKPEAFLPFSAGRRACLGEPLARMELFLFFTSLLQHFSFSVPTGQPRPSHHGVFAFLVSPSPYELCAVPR
Sequence of Cytochrome P450 3A4 (P08684 whole entry): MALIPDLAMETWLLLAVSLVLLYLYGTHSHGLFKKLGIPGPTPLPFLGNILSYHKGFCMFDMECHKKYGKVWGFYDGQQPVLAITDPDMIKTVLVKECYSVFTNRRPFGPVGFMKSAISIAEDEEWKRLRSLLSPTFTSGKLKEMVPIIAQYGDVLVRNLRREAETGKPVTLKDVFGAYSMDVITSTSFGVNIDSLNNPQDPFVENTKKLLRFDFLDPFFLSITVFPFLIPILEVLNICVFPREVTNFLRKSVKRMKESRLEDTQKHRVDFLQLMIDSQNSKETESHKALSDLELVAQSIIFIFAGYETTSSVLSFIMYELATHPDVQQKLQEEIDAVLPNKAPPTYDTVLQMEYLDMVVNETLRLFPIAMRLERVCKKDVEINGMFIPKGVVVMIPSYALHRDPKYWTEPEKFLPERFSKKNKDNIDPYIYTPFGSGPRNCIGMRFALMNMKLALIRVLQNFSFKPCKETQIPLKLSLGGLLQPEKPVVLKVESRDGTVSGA
Sequence of Cytochrome P450 2C19 (P33261 whole entry): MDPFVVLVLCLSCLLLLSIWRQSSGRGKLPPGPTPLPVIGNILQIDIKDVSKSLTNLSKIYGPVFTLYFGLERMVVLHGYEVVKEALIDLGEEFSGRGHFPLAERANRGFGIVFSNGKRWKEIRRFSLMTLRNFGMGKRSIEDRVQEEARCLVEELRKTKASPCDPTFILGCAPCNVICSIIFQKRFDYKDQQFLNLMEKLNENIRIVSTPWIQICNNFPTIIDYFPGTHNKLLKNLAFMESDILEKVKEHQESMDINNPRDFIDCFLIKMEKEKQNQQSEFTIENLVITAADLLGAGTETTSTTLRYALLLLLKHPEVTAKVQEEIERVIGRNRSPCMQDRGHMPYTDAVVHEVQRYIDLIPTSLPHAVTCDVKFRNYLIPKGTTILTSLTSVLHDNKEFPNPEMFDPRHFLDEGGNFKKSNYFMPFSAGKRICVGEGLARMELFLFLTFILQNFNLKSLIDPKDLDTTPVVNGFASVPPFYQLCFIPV
Sequence of Cytochrome P450 2C9 (P11712 whole entry): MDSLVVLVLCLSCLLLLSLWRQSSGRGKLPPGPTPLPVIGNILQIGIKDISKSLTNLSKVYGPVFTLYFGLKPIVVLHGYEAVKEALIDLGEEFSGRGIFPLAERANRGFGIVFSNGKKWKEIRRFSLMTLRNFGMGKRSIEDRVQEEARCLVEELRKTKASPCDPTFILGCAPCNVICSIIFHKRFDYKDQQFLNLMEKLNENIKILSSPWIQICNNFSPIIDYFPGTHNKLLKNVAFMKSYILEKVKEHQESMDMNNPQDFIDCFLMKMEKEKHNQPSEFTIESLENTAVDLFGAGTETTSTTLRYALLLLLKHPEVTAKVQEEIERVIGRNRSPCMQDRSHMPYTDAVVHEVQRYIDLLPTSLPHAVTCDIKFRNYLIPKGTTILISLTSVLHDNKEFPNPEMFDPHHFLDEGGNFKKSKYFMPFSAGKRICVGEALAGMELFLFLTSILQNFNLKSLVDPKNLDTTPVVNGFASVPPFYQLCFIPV
Sequence of Luciferin 4-monooxygenase (P08659 whole entry): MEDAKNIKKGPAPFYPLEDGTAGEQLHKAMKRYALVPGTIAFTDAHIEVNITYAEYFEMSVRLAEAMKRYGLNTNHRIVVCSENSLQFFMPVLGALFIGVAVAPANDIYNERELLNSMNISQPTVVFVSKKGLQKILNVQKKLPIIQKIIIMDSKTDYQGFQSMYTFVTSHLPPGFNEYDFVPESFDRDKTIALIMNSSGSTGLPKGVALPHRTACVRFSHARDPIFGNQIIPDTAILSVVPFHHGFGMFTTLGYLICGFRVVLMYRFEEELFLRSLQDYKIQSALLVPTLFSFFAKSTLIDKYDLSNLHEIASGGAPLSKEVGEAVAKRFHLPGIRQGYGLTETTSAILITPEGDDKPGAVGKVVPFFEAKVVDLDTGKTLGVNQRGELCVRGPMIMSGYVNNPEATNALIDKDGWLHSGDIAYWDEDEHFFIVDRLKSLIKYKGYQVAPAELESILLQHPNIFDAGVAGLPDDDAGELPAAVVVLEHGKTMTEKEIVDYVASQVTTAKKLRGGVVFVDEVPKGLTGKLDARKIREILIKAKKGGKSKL

In general, AC50 refers to the concentration giving half of the maximal activity seen. On to `CCN(CC)CCNC(=O)COc1ccc(OC)cc1` [MEFEXAMIDE], for which the AC50 on Cytochrome P450 2D6 and on Cytochrome P450 1A2 was 12.6 µM (inconclusive) in each case. With `O=C(Nc1cccc(Cl)c1)Nn1cnnc1`, the AC50 at Cytochrome P450 1A2 and on Cytochrome P450 3A4 was 3.16 µM (inconclusive) in each case. For `COc1cc2c(cc1OC)CN(CC(=O)Nc1ccc3c(c1)OCO3)CC2`, the AC50 on Cytochrome P450 2C19 (read-out: AC50) is 22.4 µM (inconclusive); at Cytochrome P450 1A2, 20 µM (inconclusive); on Cytochrome P450 2C9, 14.1 µM (inconclusive).

`Cc1ccccc1C(=N)c1ccccc1Cc1cccc2ccccc12`: the half-maximal activity concentration (AC50) at Cytochrome P450 3A4 was 1.58 µM (inconclusive). For `N[C@@]1(C(=O)O)CN[C@H](C(=O)O)C1`, at Cytochrome P450 1A2, the AC50 was 31.6 µM (inconclusive). Consider `Cc1ccc(Nc2ncccc2C(=O)NCc2cccs2)c(C)c1`, for which the AC50 at Cytochrome P450 2C19 (read-out: AC50) is 7.08 µM (inconclusive); at Cytochrome P450 2D6 it was 25.1 µM (inconclusive). Regarding `CC(=O)COc1ccc2c(C)c(C)c(=O)oc2c1`, the AC50 at Cytochrome P450 2C19 (read-out: AC50) was 0.178 µM (inconclusive). As for `O=C(O)c1cc2cc(Cl)ccc2oc1=O`, the values for the AC50 on Cytochrome P450 1A2 and on Cytochrome P450 2C9 were 0.0251 µM (inconclusive) and 0.00562 µM (inconclusive), respectively.

What is called EC50 is the concentration that produces a half-maximal response. For the compound `CC1(C)CC(=O)C2=C(C1)N(Cc1ccccc1)C(=O)C2(O)C(F)(F)F` (configuration not stated), the EC50 in data set [1] and in data set [2] was > 112 µM (not active) throughout. The concentration at half-maximal activity (AC50) at Cytochrome P450 3A4 was 20 µM (inconclusive). With `Cc1cc(C)cc(C(=O)Nc2nnc(SCC(=O)N3CCCc4ccccc43)s2)c1`, in data set [3], the half-maximal activity concentration (AC50) was 4.46 µM (active). As to `Cc1cccc(N(C)C(=O)c2cc3c(O)nc4ccc(C)cc4c3s2)c1`, the EC50 in data set [1] was > 112 µM (not active); in data set [2], 70.7 µM (active). In data set [3], the AC50 is 0.394 µM (active).

As for `CN(N=O)c1cc(O)ccc1O` [DEPHOSTATIN], the AC50 on Cytochrome P450 2C19 (read-out: AC50) is 25.1 µM (inconclusive); on Cytochrome P450 2D6, 31.6 µM (inconclusive); at Cytochrome P450 1A2, 31.6 µM (inconclusive); at Cytochrome P450 2C9 it was 10 µM (inconclusive). Take `O=[N+]([O-])c1cc([As](=O)(O)O)ccc1O` [ROXARSONE]: at Cytochrome P450 2C19, the AC50 result was “inconclusive”. With `CS(=O)(=O)N1CCC2(CC1)CN(Cc1nccs1)C2`, the AC50 at Cytochrome P450 1A2 was 6.31 µM (inconclusive). Regarding `O=C(c1coc2ccccc2c1=O)N1CCN(c2cccc(C(F)(F)F)c2)CC1`, the AC50 on Cytochrome P450 3A4 was 22.4 µM (inconclusive). Still for that read-out and setting: the figure for `Cn1c(=O)c2c(nc(N3CCN(c4ccccn4)CC3)n2Cc2ccc(Cl)cc2Cl)n(C)c1=O` is 2.24 µM (inconclusive). For `N=C(N)N/N=C(/c1ccccc1)c1ccc(O)cc1O`, the AC50 on Cytochrome P450 3A4 was 3.98 µM (inconclusive). Take `Cc1ccc(-c2nc(C[S+]([O-])CC(=O)NCc3ccc4c(c3)OCO4)c(C)o2)cc1` (configuration not stated): the AC50 in data set [3] was > 195 µM (inactive).

Take `COc1cccc(/C=N\NC(=O)C2C(=O)NCC2c2ccccc2)c1O` (configuration not stated): the AC50 at Cytochrome P450 2C19 (read-out: AC50) is 39.8 µM (inconclusive); on Cytochrome P450 1A2, 17.8 µM (inconclusive); at Cytochrome P450 3A4, 25.1 µM (inconclusive). As for `COc1cc2c(cc1OC)C(CCN)=NCC2`, the AC50 result on Cytochrome P450 2C19 is “inconclusive”; at Cytochrome P450 2D6, 1.58 µM (inconclusive); at Cytochrome P450 1A2, 5.01 µM (inconclusive); on Cytochrome P450 3A4, 3.98 µM (inconclusive). With `N[C@@H](CCCCP(=O)(O)O)C(=O)O`, the AC50 on Cytochrome P450 1A2 is 31.6 µM (inconclusive).

In the case of `O=C(c1cccc(S(=O)(=O)N2CCc3ccccc3C2)c1)N1CCN(c2ccc(O)cc2)CC1`, the AC50 in data set [3] is 4.51 µM (active).

On to `COc1ccccc1CN1CC2(CCN(C(=O)c3ccncc3)CC2)C1`, for which the AC50 on Cytochrome P450 3A4 is 7.94 µM (inconclusive).

Take `O=C(c1ccccc1F)c1cn(CC(=O)N2CCOCC2)c2ccccc12`: the half-maximal activity concentration (AC50) at Cytochrome P450 3A4 is 17.8 µM (inconclusive). As to `Cc1ccc(S(=O)(=O)Nc2ccc3c(c2)CC(=O)N([C@H](C)CO)C[C@@H](C)[C@H](CN(C)Cc2ccc(-c4ccccc4)cc2)O3)cc1`, the AC50 in data set [3] was 3.9 µM (active). Consider `C=CCOc1ccc2cccc(/C=N/NC(=O)c3cc4cc([N+](=O)[O-])ccc4s3)c2c1`, for which the AC50 is 0.398 µM (inconclusive) at Cytochrome P450 2C19 (read-out: AC50) and 2.51 µM (inconclusive) on Cytochrome P450 3A4. Regarding `CC(OC(=O)c1cccs1)C(=O)NC1CCCCC1C` (configuration not stated), the AC50 in data set [3] is > 195 µM (inactive). For the compound `CCN(Cc1cc(Cl)cc(C)c1O)Cc1c(O)ccc2ccccc12`, the AC50 on Cytochrome P450 1A2 was 1 µM (inconclusive); at Cytochrome P450 2C9, 5.01 µM (inconclusive). As for `CC(C)=C1C(=O)C(c2ccccc2)=C2CN3C(=O)N(CCc4ccccc4)C(=O)[C@]3(Cc3ccccc3)[C@H]21`, the AC50 was 25.1 µM (inconclusive) at Cytochrome P450 2C19 (read-out: AC50) and 5.01 µM (inconclusive) at Cytochrome P450 3A4. With `N#CCCn1c(=O)c(-c2ccc(F)cc2)nc2cnc(N3CCOCC3)nc21`, at Cytochrome P450 1A2, the AC50 was 20 µM (inconclusive). In the case of `Cc1ccc(Cn2nnc3c(O)nc(C4CCCN(C(=O)Nc5ccc(F)cc5F)C4)nc32)cc1` (configuration not stated), the AC50 was 39.8 µM (inconclusive) at Cytochrome P450 2C19 (read-out: AC50), 25.1 µM (inconclusive) at Cytochrome P450 2D6, 31.6 µM (inconclusive) at Cytochrome P450 1A2 and 22.4 µM (inconclusive) on Cytochrome P450 2C9.

As to `COc1ccc(-c2nc3cnc(N(C)C)nc3n(CCc3ccccc3)c2=O)cc1`, the half-maximal activity concentration (AC50) at Cytochrome P450 1A2 was 1.26 µM (inconclusive). In the case of `S=C1N(c2ccccc2)C(c2ccc(Cl)cc2)N2CCCN12` (configuration not stated), the concentration at half-maximal activity (AC50) was 12.6 µM (inconclusive) at Cytochrome P450 3A4 and 10 µM (inconclusive) at Cytochrome P450 2C9. As for `COc1cccc(-c2sc3ccccc3c2-c2ccc(OCCN3CCOCC3)cc2)c1`, the AC50 in data set [3] was 2.32 µM (active).

For the compound `COc1ncc2nc(-c3cc(F)cc(F)c3)c(=O)n(C3CC3)c2n1`, the values for the AC50 on Cytochrome P450 3A4 and on Cytochrome P450 2C9 were 12.6 µM (inconclusive) and 31.6 µM (inconclusive), respectively.

For `CCOC(=O)CCCNC(=O)c1cncc(Br)c1`, the AC50 on Cytochrome P450 2C19 (read-out: AC50) was 39.8 µM (inconclusive).
